26 compounds from paper PMC4796657, “Functional identification of SLC43A3 as an equilibrative nucleobase transporter involved in purine salvage in mammals” (Scientific Reports, 2015) can be followed below.

Broadly, the IC50 is the concentration needed to halve the response being measured. What is called inhibition is the drop in the measured response relative to a control, in per cent.

One assay concerns the target T1, SLC43A3 (equilibrative nucleobase transporter 1, ENBT1) (Homo sapiens, UniProt Q8NBI5).
T1 sequence (Q8NBI5 1-491): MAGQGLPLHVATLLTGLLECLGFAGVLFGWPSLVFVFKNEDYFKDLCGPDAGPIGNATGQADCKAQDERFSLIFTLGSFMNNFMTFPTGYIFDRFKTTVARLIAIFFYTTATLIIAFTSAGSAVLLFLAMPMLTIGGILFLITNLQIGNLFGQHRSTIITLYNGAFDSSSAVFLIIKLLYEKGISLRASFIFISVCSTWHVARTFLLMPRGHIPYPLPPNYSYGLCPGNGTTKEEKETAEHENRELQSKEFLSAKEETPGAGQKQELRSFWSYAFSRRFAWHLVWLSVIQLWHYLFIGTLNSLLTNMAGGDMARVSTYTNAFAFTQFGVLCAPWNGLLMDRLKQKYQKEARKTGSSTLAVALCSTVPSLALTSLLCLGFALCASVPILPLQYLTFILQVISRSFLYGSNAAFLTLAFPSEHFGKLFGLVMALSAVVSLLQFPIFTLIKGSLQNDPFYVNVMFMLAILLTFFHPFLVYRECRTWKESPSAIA
Kind of assay: inhibition of ENBT1-specific [3H]adenine uptake at […]. The format is cell-based. Set-up: full length, 491 amino acid residues, stably expressed in MDCKII cells.
Settings: not given
Consider `S=c1[nH]cnc2nc[nH]c12` [mercaptopurine], for which the “inhibition of ENBT1-specific [3H]adenine uptake at 200 uM” value (from here on “inhibition of ENBT1-specific”) is “purine and its several analogs, such as 6-thioguanine and mercaptopurine, showed inhibitory activities, suggesting that they are also substrates”.

Consider `c1ncc2nc[nH]c2n1` [purine], for which the “inhibition of ENBT1-specific” value was “purine and its several analogs, such as 6-thioguanine and mercaptopurine, showed inhibitory activities, suggesting that they are also substrates”.

For `Nc1nc2nc[nH]c2c(=S)[nH]1` [6-thioguanine], the “inhibition of ENBT1-specific” value is “purine and its several analogs, such as 6-thioguanine and mercaptopurine, showed inhibitory activities, suggesting that they are also substrates”.

For the next assay, the target named is T1, SLC43A3 (equilibrative nucleobase transporter 1, ENBT1). Briefly: cell-based.
Settings: not given
In the case of `O=c1[nH]cnc2nc[nH]c12` [hypoxanthine], the half-inhibitory concentration (IC50) is 350 µM.

A further assay shares this target. Briefly: inhibition of ENBT1-specific [3H]adenine uptake, about […] at […]. It counts as cell-based. Set-up: full length, 491 amino acid residues, stably expressed in MDCKII cells. To be noted: read-out: % inhibition at 200 μM.
As to `O=[N+]([O-])c1ccc(CSc2ncnc3c2ncn3C2OC(CO)C(O)C2O)cc1` (centres unmarked) [nitrobenzylthioinosine], the inhibition at 200 µM was around 40%.

The target is the same in another assay. Briefly: inhibition of ENBT1-mediated [3H]adenine uptake; radiolabeled uptake (apparent Km […]). It counts as cell-based. Set-up: full length, 491 amino acid residues, stably expressed in MDCKII cells.
Settings: not given
With `Nc1nc2nc[nH]c2c(=O)[nH]1` [guanine], the half-inhibitory concentration (IC50) worked out at 70 µM.

The target is the same in the next assay. Kind of assay: inhibition of ENBT1-mediated [3H]hypoxanthine uptake; radiolabeled uptake (apparent Km […]). It counts as cell-based. Set-up: full length, 491 amino acid residues, stably expressed in MDCKII cells.
Settings: not given
For `Nc1ncnc2nc[nH]c12` [adenine], the IC50 was 13 µM.

Another assay has the same target. Briefly: cell-based. On the set-up: full length, 491 amino acid residues, stably expressed in MDCKII cells; species or system MDCKII stably expressing ENBT1; inhibition of ENBT1-specific [3H]adenine (5 nM) uptake, 40 s, 22 C, mock-subtracted, scintillation counting. To be noted: MDCK-II; [3H]adenine 5 nM, pH 7.4, 22 C, 40 s; read-out: Uptake rate (% of control). How it is done:
MDCKII cells stably expressing ENBT1 (1.5 × 10^5 cells/well initially) were grown on 24-well plates for 72 h. The cells in each well were preincubated in 0.25 ml of substrate-free uptake buffer (140 mM NaCl, 5 mM KCl, 0.4 mM KH2PO4, 0.8 mM MgSO4, 1.0 mM CaCl2, 25 mM glucose, and 10 mM HEPES, pH 7.4) for 5 min, unless otherwise indicated. Uptake assays were started by replacing the substrate-free uptake buffer for preincubation with one containing the radioisotope-labeled substrate (0.25 ml). All of the procedures were conducted at 22 °C or 37 °C. Assays were stopped by addition of ice-cold substrate-free uptake buffer (2 ml), and the cells were washed two times with 2 ml of the same buffer. The cells were solubilized in 0.5 ml of 0.2 M NaOH solution containing 0.5% SDS at room temperature for 1 h, and the associated radioactivity was measured by [compound left out] scintillation counting. Cellular protein content was determined by the method of Lowry et al.[28] using bovine serum albumin as the standard. Uptake assays were also conducted in mock cells, which were transfected with empty pCI-neo vector, to estimate nonspecific uptake. To further explore the substrate specificity of ENBT1, we examined the effect of various compounds (10 μM for decynium-22 and 200 μM for the others) on the ENBT1-mediated uptake of [^3H]adenine in SLC43A3 cells (Fig. 2D). […] Because these two molecules were transported by SLC43A3 minimally (Fig. 2A), they are likely to be recognized as very poor substrates with affinities extremely low to act as competitive inhibitors. […] We also examined the effect of various amino acids (5 mM), as ENBT1 is a member of the amino acid transporter family; however, none of them affected the adenine uptake activity of SLC43A3 cells (see Supplementary Table S1 online), supporting a previo
As for `CC(C)[C@H](N)C(=O)O` [Valine], the remaining activity at 5000 µM turned out to be 101 ± 1.6%.

As to `CC(C)C[C@H](N)C(=O)O` [Leucine], the remaining activity at 5000 µM came to 94 ± 2.5%.

Regarding `N[C@@H](Cc1ccccc1)C(=O)O` [Phenylalanine], the remaining activity at 5000 µM was 98.7 ± 1.1%.

On to `N[C@@H](CCC(=O)O)C(=O)O` [Glutamate], for which the remaining activity at 5000 µM worked out at 103 ± 1.6%.

In the case of `N[C@@H](Cc1c[nH]c2ccccc12)C(=O)O` [Tryptophan], the remaining activity at 5000 µM came out at 95.6 ± 1.8%.

For `C[C@H](N)C(=O)O` [Alanine], the remaining activity at 5000 µM was found to be 103 ± 4%.

Turning to `NCCCC[C@H](N)C(=O)O` [Lysine], the remaining activity at 5000 µM amounted to 96.6 ± 1.2%.

For the compound `N[C@@H](CS)C(=O)O` [Cysteine], the remaining activity at 5000 µM is 104 ± 0.8%.

For `C[C@@H](O)[C@H](N)C(=O)O` [Threonine], the remaining activity at 5000 µM amounted to 99.7 ± 0.7%.

With `N[C@@H](CC(=O)O)C(=O)O` [Aspartate], the remaining activity at 5000 µM is 99.9 ± 1.3%.

`CSCC[C@H](N)C(=O)O` [Methionine]: the remaining activity at 5000 µM was 95.8 ± 1.4%.

Regarding `CC[C@H](C)[C@H](N)C(=O)O` [Isoleucine], the remaining activity at 5000 µM worked out at 100 ± 1.3%.

Consider `N[C@@H](Cc1ccc(O)cc1)C(=O)O` [Tyrosine], for which the remaining activity at 5000 µM came to 105.7 ± 1%.

For the compound `N[C@@H](Cc1c[nH]cn1)C(=O)O` [Histidine], the remaining activity at 5000 µM came out at 101 ± 1.8%.

In the case of `O=C(O)[C@@H]1CCCN1` [Proline], the remaining activity at 5000 µM worked out at 103.4 ± 1%.

As for `N[C@@H](CO)C(=O)O` [Serine], the remaining activity at 5000 µM is 105 ± 2.2%.

For `N=C(N)NCCC[C@H](N)C(=O)O` [Arginine], the remaining activity at 5000 µM turned out to be 95.8 ± 1.7%.

For the compound `NC(=O)C[C@H](N)C(=O)O` [Asparagine], the remaining activity at 5000 µM came out at 103 ± 2.7%.

In the case of `NC(=O)CC[C@H](N)C(=O)O` [Glutamine], the remaining activity at 5000 µM was 105 ± 1.3%.
